ChEMBL document CHEMBL1649185, “Antibacterial activity of ultrashort cationic lipo-beta-peptides” (2009)
Converted amounts (≈) assume the structure as drawn. Square brackets hold non-standard residues; d marks the D form. Peptide text beside a SMILES is read from it. * marks the point of attachment. Palmitoyl = CCCCCCCCCCCCCCCC(=O)*; Lauroyl = CCCCCCCCCCCC(=O)*

Experiments:
Format in all cases: functional
[1] = tested on: Enterococcus faecalis; assay: Antimicrobial activity against Enterococcus faecalis ATCC 29212 […]
[2] = tested on: Escherichia coli; assay: Antimicrobial activity against Escherichia coli ATCC 25922 by […]
[3] = tested on: Streptococcus pneumoniae; assay: Antimicrobial activity against Streptococcus pneumoniae ATCC 49619 […]
[4] = tested on: Enterococcus faecium; assay: Antimicrobial activity against Enterococcus faecium ATCC 27270 […]
[5] = tested on: Acinetobacter baumannii; assay: Antimicrobial activity against Acinetobacter baumannii CAN-ICU 63169 by […]
[6] = tested on: Staphylococcus aureus; assay: Antimicrobial activity against Staphylococcus aureus ATCC 29213 […]
[7] = tested on: Escherichia coli; assay: Antimicrobial activity against Escherichia coli CAN-ICU 61714 […]
[8] = tested on: Stenotrophomonas maltophilia; assay: Antimicrobial activity against Stenotrophomonas maltophilia CAN-ICU 62584 […]
[9] = tested on: Pseudomonas aeruginosa; assay: Antimicrobial activity against Pseudomonas aeruginosa ATCC 27853 […]
[10] = tested on: Pseudomonas aeruginosa; assay: Antimicrobial activity against Pseudomonas aeruginosa CAN-ICU 62308 […]
[11] = tested on: Escherichia coli; assay: Antimicrobial activity against Escherichia coli CAN-ICU 63074 […]
[12] = tested on: Klebsiella pneumoniae; assay: Antimicrobial activity against Klebsiella pneumoniae ATCC 13883 […]
[13] = tested on: Staphylococcus epidermidis; assay: Antimicrobial activity against methicillin-resistant Staphylococcus epidermidis CAN-ICU 61589 […]
[14] = tested on: Staphylococcus aureus; assay: Antimicrobial activity against methicillin-resistant Staphylococcus aureus ATCC 33592 […]
[15] = tested on: Staphylococcus epidermidis; assay: Antimicrobial activity against Staphylococcus epidermidis ATCC 14990 […]

Row | Compound | MIC [1] [µg/mL] | MIC [2] [µg/mL] | MIC [3] [µg/mL] | MIC [4] [µg/mL] | MIC [5] [µg/mL] | MIC [6] [µg/mL] | MIC [7] [µg/mL] | MIC [8] [µg/mL] | MIC [9] [µg/mL] | MIC [10] [µg/mL] | MIC [11] [µg/mL] | MIC [12] [µg/mL] | MIC [13] [µg/mL] | MIC [14] [µg/mL] | MIC [15] [µg/mL]
1 | CCCCCCCCCCCCCCCC(=O)N[C@@H](CCCCN)C(=O)NCC(=O)NCC(=O)N[C@@H](CCCCN)C(=O)O | 8 (≈ 12.8 µM) | 16 (≈ 25.5 µM) | 128 (≈ 204 µM) | 16 (≈ 25.5 µM) | 128 (≈ 204 µM) | 8 (≈ 12.8 µM) | 16 (≈ 25.5 µM) | 128 (≈ 204 µM) | 64 (≈ 102 µM) | 64 (≈ 102 µM) | 16 (≈ 25.5 µM) | 64 (≈ 102 µM) | 8 (≈ 12.8 µM) | 16 (≈ 25.5 µM) | 4 (≈ 6.38 µM)
2 | CCCCCCCCCCCCCCCC(=O)N[C@@H](CCCCN)C(=O)NCC(=O)NCC(=O)N[C@H](CCCCN)C(=O)O | 16 (≈ 25.5 µM) | 16 (≈ 25.5 µM) | 128 (≈ 204 µM) | 16 (≈ 25.5 µM) | 64 (≈ 102 µM) | 16 (≈ 25.5 µM) | 64 (≈ 102 µM) | 64 (≈ 102 µM) | 64 (≈ 102 µM) | 64 (≈ 102 µM) | 16 (≈ 25.5 µM) | 64 (≈ 102 µM) | 8 (≈ 12.8 µM) | 16 (≈ 25.5 µM) | 8 (≈ 12.8 µM)
3 | CCCCCCCCCCCCCCCC(=O)N[C@H](CCCN)CC(=O)NCC(=O)NCC(=O)N[C@H](CCCN)CC(=O)O | 32 (≈ 51 µM) | 32 (≈ 51 µM) | 128 (≈ 204 µM) | 32 (≈ 51 µM) | 128 (≈ 204 µM) | 16 (≈ 25.5 µM) | 32 (≈ 51 µM) | 256 (≈ 408 µM) | 64 (≈ 102 µM) | > 64 | 32 (≈ 51 µM) | 128 (≈ 204 µM) | 16 (≈ 25.5 µM) | 32 (≈ 51 µM) | 8 (≈ 12.8 µM)
4 | CCCCCCCCCCCCCCCC(=O)N[C@H](CCCN)CC(=O)N[C@H](CCCN)CC(=O)N[C@H](CCCN)CC(=O)N[C@H](CCCN)CC(=O)O | 32 (≈ 41.6 µM) | 16 (≈ 20.8 µM) | 128 (≈ 166 µM) | 16 (≈ 20.8 µM) | 256 (≈ 333 µM) | 16 (≈ 20.8 µM) | 32 (≈ 41.6 µM) | 256 (≈ 333 µM) | 64 (≈ 83.2 µM) | 128 (≈ 166 µM) | 32 (≈ 41.6 µM) | 128 (≈ 166 µM) | 4 (≈ 5.2 µM) | 16 (≈ 20.8 µM) | 4 (≈ 5.2 µM)
5 | CCCCCCCCCCCCCCCC(=O)N[C@H](CCCN)CC(=O)NCCC(=O)NCCC(=O)N[C@H](CCCN)CC(=O)O | 32 (≈ 48.9 µM) | 64 (≈ 97.7 µM) | > 64 | 32 (≈ 48.9 µM) | 256 (≈ 391 µM) | 64 (≈ 97.7 µM) | 64 (≈ 97.7 µM) | > 128 | 256 (≈ 391 µM) | 128 (≈ 195 µM) | 64 (≈ 97.7 µM) | > 128 | 16 (≈ 24.4 µM) | 32 (≈ 48.9 µM) | 8 (≈ 12.2 µM)
6 | CCCCCCCCCCCC(=O)N[C@H](CCCN)CC(=O)N[C@@H](CC(=O)N[C@@H](CC(=O)N[C@H](CCCN)CC(=O)O)C(C)C)C(C)C | 64 (≈ 93.7 µM) | 64 (≈ 93.7 µM) | 128 (≈ 187 µM) | 32 (≈ 46.9 µM) | > 128 | 32 (≈ 46.9 µM) | 64 (≈ 93.7 µM) | 256 (≈ 375 µM) | 128 (≈ 187 µM) | 128 (≈ 187 µM) | 64 (≈ 93.7 µM) | 256 (≈ 375 µM) | 32 (≈ 46.9 µM) | 32 (≈ 46.9 µM) | 16 (≈ 23.4 µM)
7 | CCCCCCCCCCCC(=O)N[C@@H](CCCCN)C(=O)N[C@@H](CC(C)C)C(=O)N[C@@H](CC(C)C)C(=O)N[C@@H](CCCCN)C(=O)O (Lauroyl-KLLK-OH) | 32 (≈ 46.9 µM) | 128 (≈ 187 µM) | 128 (≈ 187 µM) | 16 (≈ 23.4 µM) | > 64 | 16 (≈ 23.4 µM) | 128 (≈ 187 µM) | > 256 | 128 (≈ 187 µM) | 128 (≈ 187 µM) | 128 (≈ 187 µM) | 256 (≈ 375 µM) | 16 (≈ 23.4 µM) | 16 (≈ 23.4 µM) | 16 (≈ 23.4 µM)
8 | CCCCCCCCCCCC(=O)N[C@@H](CCCCN)C(=O)N[C@@H](CC(C)C)C(=O)N[C@H](CC(C)C)C(=O)N[C@@H](CCCCN)C(=O)O (Lauroyl-KL[dL]K-OH) | 32 (≈ 46.9 µM) | 64 (≈ 93.7 µM) | 64 (≈ 93.7 µM) | 32 (≈ 46.9 µM) | > 256 | 16 (≈ 23.4 µM) | 64 (≈ 93.7 µM) | > 256 | 128 (≈ 187 µM) | 128 (≈ 187 µM) | 64 (≈ 93.7 µM) | > 64 | 16 (≈ 23.4 µM) | 16 (≈ 23.4 µM) | 8 (≈ 11.7 µM)
9 | CCCCCCCCCCCCCCCC(=O)N[C@@H](CCCCN)C(=O)N[C@@H](C)C(=O)N[C@@H](C)C(=O)N[C@@H](CCCCN)C(=O)O (Palmitoyl-KAAK-OH) | 16 (≈ 24.4 µM) | 16 (≈ 24.4 µM) | 128 (≈ 195 µM) | 8 (≈ 12.2 µM) | 128 (≈ 195 µM) | 16 (≈ 24.4 µM) | 16 (≈ 24.4 µM) | 128 (≈ 195 µM) | 32 (≈ 48.9 µM) | 64 (≈ 97.7 µM) | 16 (≈ 24.4 µM) | 128 (≈ 195 µM) | 8 (≈ 12.2 µM) | 16 (≈ 24.4 µM) | 8 (≈ 12.2 µM)
10 | CCCCCCCCCCCCCCCC(=O)N[C@@H](CCCCN)C(=O)N[C@@H](C)C(=O)N[C@H](C)C(=O)N[C@@H](CCCCN)C(=O)O (Palmitoyl-KA[dA]K-OH) | 16 (≈ 24.4 µM) | 32 (≈ 48.9 µM) | 128 (≈ 195 µM) | 8 (≈ 12.2 µM) | 128 (≈ 195 µM) | 8 (≈ 12.2 µM) | 32 (≈ 48.9 µM) | 128 (≈ 195 µM) | 64 (≈ 97.7 µM) | 64 (≈ 97.7 µM) | 32 (≈ 48.9 µM) | 128 (≈ 195 µM) | 8 (≈ 12.2 µM) | 32 (≈ 48.9 µM) | 4 (≈ 6.11 µM)
11 | CCCCCCCCCCCCCCCC(=O)N[C@@H](CCCCN)C(=O)N[C@@H](CCCCN)C(=O)N[C@@H](CCCCN)C(=O)N[C@@H](CCCCN)C(=O)O (Palmitoyl-KKKK-OH) | 16 (≈ 20.8 µM) | 16 (≈ 20.8 µM) | > 64 | 16 (≈ 20.8 µM) | 256 (≈ 333 µM) | 32 (≈ 41.6 µM) | 16 (≈ 20.8 µM) | 256 (≈ 333 µM) | 64 (≈ 83.2 µM) | 256 (≈ 333 µM) | 32 (≈ 41.6 µM) | 256 (≈ 333 µM) | 8 (≈ 10.4 µM) | 16 (≈ 20.8 µM) | 4 (≈ 5.2 µM)
12 | CCCCCCCCCCCCCCCC(=O)N[C@@H](CCCCN)C(=O)N[C@@H](CCCCN)C(=O)N[C@H](CCCCN)C(=O)N[C@@H](CCCCN)C(=O)O (Palmitoyl-KK[dK]K-OH) | 32 (≈ 41.6 µM) | 32 (≈ 41.6 µM) | > 32 | 16 (≈ 20.8 µM) | 256 (≈ 333 µM) | 16 (≈ 20.8 µM) | 32 (≈ 41.6 µM) | 256 (≈ 333 µM) | 32 (≈ 41.6 µM) | 256 (≈ 333 µM) | 32 (≈ 41.6 µM) | 256 (≈ 333 µM) | 8 (≈ 10.4 µM) | 16 (≈ 20.8 µM) | 4 (≈ 5.2 µM)
13 | GENTAMICIN | – | 1 | 4 | – | 128 | 1 | 128 | > 512 | 8 | 128 | 8 | 0.25 | 32 | 2 | 0.25
